According to publication PMC9482650, “Quantitative fragmentomics allow affinity mapping of interactomes” (Nature Communications, 2022):
Read-outs that look alike come from different tables or passages of the source. Values belong to the compound of their own block, whether it stands above or below them. Primed or numbered codes have the meaning given here. Ends that are not written are not given here. * marks the point of attachment. Biotin = O=C1N[C@H]2[C@H](CS[C@H]2CCCCC(=O)*)N1; ttds″ = trioxatridecan-succinamic acid linker

Legend:
LIN7C [1] = assay: PBM-AP-MS from HaCat extract; assay type: binding, Homo sapiens; conditions: prey LIN7C (Q9NUP9), PBM bait vs biotin control (Biot03)
CPVL = assay: PBM-AP-MS from HeLa extract; assay type: binding, Homo sapiens; conditions: prey CPVL (Q9H3G5), PBM bait vs biotin control
CASK [2] = assay: PBM-AP-MS from HaCat extract; assay type: binding, Homo sapiens; conditions: prey CASK (O14936), PBM bait vs biotin control (Biot03)
LIN7C [3] = assay: PBM-AP-MS from HeLa extract; assay type: binding, Homo sapiens; conditions: prey LIN7C (Q9NUP9), PBM bait vs biotin control
SCRIB [4] = assay: PBM-AP-MS from Jurkat extract; assay type: binding, Homo sapiens
Description: (§1) For PBM-AP-MS experiments, 30 μl streptavidin resin was mixed with biotin or peptide at 50–60 μM concentration in 6–6.5 resin volume for 60 min to achieve resin saturation. For PDZ-AP-MS experiments, 30 μl streptavidin resin was mixed with biotinylated MBP or MBP-PDZ at 40-50 μM concentration in >1000× resin volume for 60 min to achieve resin saturation. After saturation, resins were washed a single time (ten resin volume, holdup buffer), and were depleted with biotin (1 mM biotin, 5–10 resin volume, 10 min). Finally, resins were washed two times. 0.5 ml 2 mg/ml cell lysate was added to the dry resin (1 mg total input) and were incubated at 4 °C for 2 h. Then, the beads were washed three times with 10 resin volume buffer containing: 50 mM TRIS pH 8.5, 150 mM NaCl, 1% TritonX-100, 10× complete EDTA-free protease inhibitor cocktail, 2 mM EDTA, 1 mM TCEP. Then, the beads were washed two times with ten resin volume buffer containing: 50 mM TRIS pH 8.5, 150 mM NaCl, 1 mM TCEP. Finally, captured protein was eluted from the resin in two steps and the eluted fractions were pooled. For each elution the beads were incubated for 30 min with three resin volume buffer containing: 20 mM TRIS pH8.5, 100 mM NaCl, 500 μM TCEP, 8 M Urea. Between each step, the beads were separated by mild centrifugation and the supernatant was removed by gentle pipetting.
(§2) Proteins were identified by database searching using SequestHT (Thermo Fisher Scientific) with Proteome Discoverer 2.4 software (PD2.4, Thermo Fisher Scientific) on human FASTA database downloaded from SwissProt (reviewed, release 2020_11_27, 20304 entries, https://www.uniprot.org/). Precursor and fragment mass tolerances were set at 7 ppm and 0.6 Da respectively, and up to two missed cleavages were allowed. Oxidation (M, +15.995 Da) was set as variable modification, and Carbamidomethylation (C, +57.021 Da) as fixed modification. Peptides and proteins were filtered with a false discovery rate at 1%. Label-free quantification was based on the extracted ion chromatography intensity of the peptides. All samples were measured in technical triplicates. The measured extracted ion chromatogram (XIC) intensities were normalized based on median intensities of the entire dataset to correct minor loading differences. For statistical tests and enrichment calculations, not detectable intensity values were treated with an imputation method, where the missing values were replaced by random values similar to the 10% of the lowest intensity values present in the entire dataset. Unpaired two-tailed T-test, assuming equal variance, were performed on obtained log2 XIC intensities. The detection threshold for enriched proteins in AP-MS experiments were analyzed above twofold enrichment with <0.01 P value. Then, proteins with PDZ-domains or PBMs were extracted from the list of enriched proteins. In case only a specific isoform of the detected protein contains a PBM, the identified peptide fragments were manually checked to check which isoform(s) were most likely detected. All raw LC-MS/MS data (from 165 runs) have been deposited to the ProteomeXchange via the PRIDE database with identifier PXD027743.

DLG1 = assay: PBM-AP-MS from Jurkat extract; assay type: binding, Homo sapiens
Description: as §1, §2

MAGI1 = assay: PBM-AP-MS from Jurkat extract; assay type: binding, Homo sapiens
Description: as §1, §2

CASK [5] = assay: PBM-AP-MS from Jurkat extract; assay type: binding, Homo sapiens; conditions: Jurkat lysate
Description: as §1, §2

LIN7C [6] = assay: PBM-AP-MS from Jurkat extract; assay type: binding, Homo sapiens
Description: as §1, §2

SNTB2 = assay: PBM-AP-MS from HeLa extract; assay type: binding, Homo sapiens; conditions: prey SNTB2 (Q13425), PBM bait vs biotin control
MPP7 [7] = assay: PBM-AP-MS from HaCat extract; assay type: binding, Homo sapiens; conditions: prey MPP7 (Q5T2T1), PBM bait vs biotin control (Biot03)
SCRIB [8] = assay: PBM-AP-MS from HeLa extract; assay type: binding, Homo sapiens; conditions: prey SCRIB (Q14160), PBM bait vs biotin control
SYNJ2BP = assay: PBM-AP-MS from HaCat extract; assay type: binding, Homo sapiens; conditions: prey SYNJ2BP (P57105), PBM bait vs biotin control (Biot03)
PDZK1 = assay: PBM-AP-MS from HeLa extract; assay type: binding, Homo sapiens; conditions: prey PDZK1 (Q5T2W1), PBM bait vs biotin control
SLC9A3R2 = assay: PBM-AP-MS from HaCat extract; assay type: binding, Homo sapiens; conditions: prey SLC9A3R2 (Q15599), PBM bait vs biotin control (Biot03)
SNX27 PDZ = SNX27 PDZ (Homo sapiens, UniProt Q96L92); assay: Holdup assay; assay type: binding
SCRIB_1 PDZ = SCRIB_1 PDZ (Homo sapiens, UniProt Q14160); assay: Holdup assay; assay type: binding
DLG1_2 PDZ = DLG1_2 PDZ (Homo sapiens, UniProt Q12959); assay: Holdup assay; assay type: binding
DLG1_1 PDZ = DLG1_1 PDZ (Homo sapiens, UniProt Q12959); assay: Holdup assay; assay type: binding
TX1BP3 PDZ = target: T1, TX1BP3 PDZ (Homo sapiens, UniProt O14907); assay: Holdup assay; assay type: binding
T1 sequence (O14907 15-112 limits assumed): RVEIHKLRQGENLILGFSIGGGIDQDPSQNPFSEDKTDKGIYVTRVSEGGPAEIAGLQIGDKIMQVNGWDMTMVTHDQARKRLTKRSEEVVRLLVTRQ

LGALS7 = assay: PBM-AP-MS from Jurkat extract; assay type: binding, Homo sapiens; conditions: prey LGALS7 (P47929), PBM bait vs biotin control
Description: Supplement 41467_2022_33018_MOESM5_ESM.xlsx, sheet "Jurkat HPV82-E6" | column: -LOG(P-Value); Difference log2; Ratio HPV82/biot

KRT83 = assay: PBM-AP-MS from HeLa extract; assay type: binding, Homo sapiens; conditions: prey KRT83 (P78385), PBM bait vs biotin control
Description: (§3) Supplement 41467_2022_33018_MOESM5_ESM.xlsx, sheet "HeLa HPV82-E6" | column: -LOG(P-Value); Difference log2; Ratio HPV82E6/Biot

MPP7 [9] = assay: PBM-AP-MS from HeLa extract; assay type: binding, Homo sapiens; conditions: prey MPP7 (Q5T2T1), PBM bait vs biotin control
Description: as §3

SCRIB2 PDZ = target: T2, SCRIB2 PDZ (Homo sapiens, UniProt Q14160); assay: Holdup assay; assay type: binding
T2 sequence (Q14160 862-950 limits assumed): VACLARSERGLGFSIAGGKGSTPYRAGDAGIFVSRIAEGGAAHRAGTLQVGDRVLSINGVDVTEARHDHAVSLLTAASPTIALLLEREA

[10] = fold enrichment of prey vs biotin control resin, Jurkat lysate
[11] = prey enrichment on PBM bait resin vs biotin control resin, Jurkat lysate, technical triplicates
[12] = PBM motif of the named protein vs SCRIB_1 PDZ, read-out: pKd values – domain-motif, SCRIB_1 (converted)
[13] = PBM motif of the named protein vs TX1BP3 PDZ, read-out: pKd values – domain-motif, TX1BP3 (converted)
[14] = Jurkat extract, prey SCRIB (Q14160), PBM bait vs biotin control
[15] = Jurkat extract, prey DLG1 (Q12959), PBM bait vs biotin control
[16] = Jurkat extract, prey MAGI1 (Q96QZ7), PBM bait vs biotin control
[17] = Jurkat extract, prey LIN7C (Q9NUP9), PBM bait vs biotin control

Chain of SCRIB_1 PDZ (Q14160 728-815 limits assumed): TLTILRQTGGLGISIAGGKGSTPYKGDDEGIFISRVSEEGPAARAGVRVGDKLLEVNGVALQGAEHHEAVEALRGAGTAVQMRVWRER

Compound: SSRTRRETQL [HPV16-E6]
Difference log2 (LIN7C [1]): 8.385
Ratio bait/Biot03 (LIN7C [1]): 334.203
Difference log2 (CPVL): 4.342
Ratio bait/biot (CPVL): 20.282
Difference log2 (CASK [2]): 6.666
Ratio bait/Biot03 (CASK [2]): 101.558
Difference log2 (LIN7C [3]): 7.182
Ratio bait/biot (LIN7C [3]): 145.232
Ratio bait/biot (SCRIB [4]; [10]): 256.729
Difference log2 (SCRIB [4]; [11]): 8.0041
Ratio bait/biot (DLG1; [10]): 502.402
Difference log2 (DLG1; [11]): 8.9727
Ratio bait/biot (MAGI1; [10]): 36.8169
Difference log2 (MAGI1; [11]): 5.2023
Ratio bait/biot (CASK [5]; fold enrichment of prey vs biotin control resin): 11.3007
Difference log2 (CASK [5]; prey enrichment on PBM bait resin vs biotin control resin, technical triplicates): 3.498
Ratio bait/biot (LIN7C [6]; [10]): 32.0459
Difference log2 (LIN7C [6]; [11]): 5.002
Difference log2 (SNTB2): 5.25
Ratio bait/biot (SNTB2): 38.0503
Difference log2 (MPP7 [7]): 5.9997
Ratio bait/Biot03 (MPP7 [7]): 63.9865
Difference log2 (SCRIB [8]): 7.71
Ratio bait/biot (SCRIB [8]): 209.394
Difference log2 (SYNJ2BP): 4.095
Ratio bait/Biot03 (SYNJ2BP): 17.0893
Difference log2 (PDZK1): 4.4
Ratio bait/biot (PDZK1): 21.1168
Difference log2 (SLC9A3R2): 3.853
Ratio bait/Biot03 (SLC9A3R2): 14.4499

Kd (SNX27 PDZ): 22.4 µM
Compound: TESNLQTSSC [CGN]

Kd (SNX27 PDZ): 9.77 µM
Kd (SCRIB_1 PDZ; [12]): 158 µM
Kd (DLG1_2 PDZ; PBM motif of the named protein vs DLG1_2 PDZ, read-out: pKd values – domain-motif, DLG1_2 (converted)): 50.1 µM
Kd (DLG1_1 PDZ; PBM motif of the named protein vs DLG1_1 PDZ, read-out: pKd values – domain-motif, DLG1_1 (converted)): 162 µM
Kd (TX1BP3 PDZ; [13]): 105 µM
Compound: KIEDVEITLV [FCHSD2]

Compound: HPV82-E6 ({Biotin-ttds″}-PPRQRSETQV)
Difference log2 (LGALS7): 4.513
Ratio bait/biot (LGALS7): 22.8362
Difference log2 (CPVL): 3.939
Ratio bait/biot (CPVL): 15.3339
Difference log2 (LIN7C [3]): 7.066
Ratio bait/biot (LIN7C [3]): 134.006
Difference log2 (SCRIB [4]; [14]): 7.318
Ratio bait/biot (SCRIB [4]; [14]): 159.61
Difference log2 (DLG1; [15]): 8.838
Ratio bait/biot (DLG1; [15]): 457.64
Difference log2 (MAGI1; [16]): 5.746
Ratio bait/biot (MAGI1; [16]): 53.6695
Difference log2 (LIN7C [6]; [17]): 5.109
Ratio bait/biot (LIN7C [6]; [17]): 34.5003
Difference log2 (KRT83): 3.605
Ratio bait/biot (KRT83): 12.1643
Difference log2 (MPP7 [9]): 3.556
Ratio bait/biot (MPP7 [9]): 11.7654
Difference log2 (SCRIB [8]): 7.349
Ratio bait/biot (SCRIB [8]): 163.074

Kd (SCRIB2 PDZ; PBM motif of the named protein vs SCRIB_2 PDZ, read-out: pKd values – domain-motif, SCRIB_2 (converted)): 269 µM
Kd (SNX27 PDZ): 12.3 µM
Kd (SCRIB_1 PDZ; [12]): 13.8 µM
Kd (TX1BP3 PDZ; [13]): 1.02 µM
Compound: CC(C)C[C@H](NC(=O)[C@H](CC(=O)O)NC(=O)[C@@H](NC(=O)[C@H](CC(=O)O)NC(=O)[C@H](Cc1ccccc1)NC(=O)[C@H](Cc1c[nH]c2ccccc12)NC(=O)[C@H](C)NC(=O)[C@H](CC(C)C)NC(=O)[C@H](CCC(N)=O)NC(=O)[C@@H](N)CC(N)=O)[C@@H](C)O)C(=O)O [CTNNB1]

Kd (TX1BP3 PDZ; [13]): 151 µM
Compound: PRVKPQRSKV [PPP1R13L]

Kd (SCRIB2 PDZ; holdup affinity of the PBM peptide of the named protein, sheet PBMcomplexome, lower sub-table, 3.5 appears to be the floor for no detectable binding, read-out: affinity of PBM to SCRIB_2 (pKd) (converted)): 25.7 µM
Kd (SNX27 PDZ; holdup affinity of the PBM peptide of the named protein, sheet PBMcomplexome, lower sub-table): 15.8 µM
Kd (SCRIB_1 PDZ; holdup affinity of the PBM peptide of the named protein, sheet PBMcomplexome, lower sub-table, 3.5 appears to be the floor for no detectable binding, read-out: affinity of PBM to SCRIB_1 (pKd) (converted)): 17.8 µM
Kd (DLG1_2 PDZ; holdup affinity of the PBM peptide of the named protein, sheet PBMcomplexome, lower sub-table, 3.5 appears to be the floor for no detectable binding, read-out: affinity of PBM to DLG1_2 (pKd) (converted)): 22.4 µM
Kd (DLG1_1 PDZ; holdup affinity of the PBM peptide of the named protein, sheet PBMcomplexome, lower sub-table, 3.5 appears to be the floor for no detectable binding, read-out: affinity of PBM to DLG1_1 (pKd) (converted)): 49 µM
Kd (TX1BP3 PDZ; holdup affinity of the PBM peptide of the named protein, sheet PBMcomplexome, lower sub-table, 3.5 appears to be the floor for no detectable binding, read-out: affinity of PBM to TX1BP3 (pKd) (converted)): 1.26 µM
Compound: PKRPFVESNV [TANC2]
